From patent publication US10472346B2, “Potent gamma-secretase modulators” (The General Hospital Coporation, priority 2014, dated 2019) come the findings set out here.

Entries after “also recorded” stand apart in the source; their conditions may differ.

The test system of test [1] is Notch processing. Nature of the test: Notch processing in transfected H4-APP751 cells (Western blot, Myc antibody, NICD). Type of test: cell-based, human. The settings on record: H4-APP751 cells transfected with the Notch NδED construct, 40 nM, 200 nM, 1000 nM, and 5000 nM, 24 hrs. An excerpt:
Cells were harvested 48 hrs post transfection and applied to Western blotting analysis. Myc antibody was utilized to assess the NAED and NICD tagged with Myc on their N-termini. β-Actin was utilized as the loading control.
Cells were harvested 48 hrs post transfection and subjected to Western blotting analysis. Myc antibody was utilized to assess the NδED and NICD tagged with Myc on their N-termini.
Stable H4 human neuroglioma cells over-expressing human APP751, or H4-APP751 cells, were transfected with the NAE construct, and then treated with different concentrations SGSM Compound 1 (Lanes 1-6) or DAPT (Lanes 7-10) for another 24 hrs and are shown in FIG. 9. Cells were harvested 48 hrs post transfection and applied to Western blotting analysis. Myc antibody was utilized to assess the NAED and NICD tagged with Myc on their N-termini β-Actin was utilized as the loading control.
Stably-transfected H4 human neuroglioma cells over-expressing human APP751 (H4-APP751) cells, were transfected with the Notch NδED construct, and then treated with vehicle, or different doses of GSMs (40 nM, 200 nM, 1000 nM, and 5000 nM) for 24 hrs. Cells were harvested 48 hrs post transfection and subjected to Western blotting analysis.

Test [2] has as its system Aβ42. Put plainly: Aβ42 IC50 assay (SHSYSY-APP cell-based screening, UCSD sandwich Aβ42 ELISA). An outline of the steps: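 SHSY5Y-APP cells; secreted Aβ42 quantified by sandwich ELISA to give IC50. Each compound run twice in triplicate on sequential days. Values accepted only when the two runs agree within 3-fold.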

For the molecule `COc1nc(-c2cc(C)c(N[C@@H](C)c3cc(F)cc(F)c3)nn2)ccc1-n1cnc(C)c1` [Example 46, (S)—N-(1-(3,5-difluorophenyl)ethyl)-6-(6-methoxy-5-(4-methyl-1H-imidazol-1-yl)pyridin-2-yl)-4-methylpyridazin-3-amine], the “Notch processing (NICD levels, Western blot)” value in test [1] is “did not decrease the NICD levels at all concentrations studied; also recorded: not inhibit Notch processing”. Moreover, the IC50 in test [2] was determined as 4.1 nM.
